# Assay results reported in patent US12274264B2, “Piperonylic acid derivative and application thereof” (SHENYANG SINOCHEM AGROCHEMICALS R&D CO., LTD., priority 2019, dated 2025).
# Like-named read-outs stand apart in the source and are kept apart here.
# Key:
# Plutella xylostella [1] = conditions: concentration of 1 ppm; cited from earlier work
# [2] = test system: Tetranychus cinnabarinus adults; assay: Determination of acaricidal activity (spray on bean plant leaves with adult spider mites, mortality after 72 hours); type: in vivo; conditions: read-out: Mortality (%) against Tetranychus Cinnabarinus Adult
# Method: (§1) According to the solubility of test compounds, the compounds are dissolved with acetone or dimethyl sulfoxide, and then diluted with 0.1% Tween 80 solution to form a required concentration of 50 ml test liquid. The content of the acetone or the dimethyl sulfoxide in the total solution is not more than 10%.
# The adult spider mites were put into two true leaves of bean plants. After the number of mites was investigated, the solution of certain concentrations of test compounds was sprayed by using a handheld Airbrush. Three replicates were set for each treatment. Then the leaves were maintained in a standard observation room. After 72 hours, the number of surviving mites was investigated, and the mortality rate was calculated. Compounds I-41, KC3, KC4 and MC were selected for parallel determination of activity against Tetranychus cinnabarinus adults.
# Spodoptera litura = conditions: concentration of 1 ppm; cited from earlier work
# [3] = test system: Tribolium confusum adults; assay: Determination of Tribolium confusum adults (treated feeding bran, 72 h); type: in vivo; conditions: 72 h, read-out: Mortality (%) against Tribolium Confusum Adults
# Method: as §1
# The test liquid was prepared in the order from low dose to high dose according to the test design. Then, the liquid of different concentrations was added to feeding bran and uniformly stirred, and dried in the shade. Then, the resulting feeding bran was collected in a paper cup. Fifty Tribolium confusum adults with consistent size were put in the paper cup. Three replicates were set for each treatment. Control check was set. The treated test materials were put in an observation room under controlled conditions. After 72 h, the number of dead and surviving adults was investigated.
# [4] = test system: western flower thrips nymphs; assay: Determination of activity against western flower thrips nymphs (sprayed kidney bean leaves, mortality after 72 hours); type: in vivo; conditions: Frankliniella occidentalis, read-out: Mortality (%) against Western Flower Thrips Nymphs
# Method: as §1
# Fresh kidney bean leaves cultured in the glasshouse were selected and uniformly sprayed with 1 ml of the test liquid by using a handheld Airbrush. The leaves were dried naturally and placed in a test tube. Fifteen tidy and healthy western flower thrips nymphs were put into the leaves. Three replicates were set for each treatment. The water treatment was set as control check. After the treatment, the treated tube were placed in a chamber of 24° C., 60%-70% relative humidity and day light. After 72 hours, the number of surviving insects was investigated, and the mortality was calculated.
# Spodoptera littoralis = conditions: concentration of 200 ppm; cited from earlier work
# Plutella xylostella [5] = conditions: concentration of 200 ppm; cited from earlier work
# Tetranychus urticae koch = conditions: concentration of 200 ppm; cited from earlier work
# trips tabaci = conditions: concentration of 200 ppm; cited from earlier work
SMILES,activities against Plutella xylostella (Plutella xylostella [1]),mortality at 10 µg/mL ([2]; 72 h),mortality at 100 µg/mL ([2]; 72 h),mortality at 600 µg/mL ([2]; 72 h),activities against Spodoptera litura (Spodoptera litura),mortality at 5 µg/mL [3],mortality at 20 µg/mL [3],mortality at 10 µg/mL ([4]; 72 h),mortality at 100 µg/mL ([4]; 72 h),activities against Spodoptera littoralis (Spodoptera littoralis),"mortality at 10 µg/mL ([2]; 10 mg/L, after 72 hours)","mortality at 100 µg/mL ([2]; 100 mg/L, after 72 hours)","mortality at 600 µg/mL ([2]; 600 mg/L, after 72 hours)",activities against Plutella xylostella (Plutella xylostella [5]),activities against Tetranychus urticae koch (Tetranychus urticae koch),activities against trips tabaci (trips tabaci),"mortality at 10 µg/mL ([4]; 10 mg/L, after 72 hours)","mortality at 100 µg/mL ([4]; 100 mg/L, after 72 hours)"
"CN(C(=O)c1ccccc1)c1cccc(C(=O)Nc2c(Br)cc(C(F)(C(F)(F)F)C(F)(F)F)cc2C(F)(F)F)c1F [KC3, Broflanilide]",greater than or equal to 70%,0%,0%,0%,greater than or equal to 70%,69%,80%,33%,60%,,,,,,,,,
O=C(Nc1cccc(C(=O)Nc2c(Br)cc(C(F)(C(F)(F)F)C(F)(F)F)cc2OC(F)F)c1F)c1ccccc1 [KC4],,,,,,,,,,greater than or equal to 80%,0%,0%,0%,greater than or equal to 80%,greater than or equal to 80%,greater than or equal to 80%,37%,52%
